# Reference: PMC4177008 (Organic & biomolecular chemistry, 2014)
# Entries after “also recorded” stand apart in the source; their conditions may differ.
# Experiments:
# [1] = system: influenza virus A/Udorn/72 strain (H3N2); test: MDCK cell-based plaque reduction assay, influenza A/Udorn/72; settings: for anti-influenza inhibitory activity (result in words) / fold improvement of inhibitory activity over HTS hit P114F5 / inhibition to influenza virus at 100 μM: A/Udorn/72 (H3N2); for anti-influenza inhibitory activity (result in words): authors' description of the EC50 data; for fold improvement of inhibitory activity over HTS hit P114F5: compared to P114F5; for EC50: influenza virus A/Udorn/72 strain (H3N2), 50% reduction of plaques in MDCK cells; for inhibition to influenza virus at 100 μM: at a concentration of 100 μM
# [2] = system: Influenza A1/Jingfang 86-1(H1N1); test: MDCK cell-based plaque reduction assay, influenza A1/Jingfang 86-1; settings: Influenza A virus
# [3] = system: influenza A/udorn/72 (H3N2); type: cell-based, influenza A virus
# [4] = system: Influenza A/PR/8/34 (H1N1); test: MDCK cell-based plaque reduction assay, influenza A/PR/8/34; settings: Influenza A virus, H1N1|PR/8, MDCK
# [5] = system: Influenza B/Shenzhen/747; test: MDCK cell-based plaque reduction assay, influenza B/Shenzhen/747; settings: Influenza B virus
# [6] = system: Influenza A3/Lufang 93-1(H3N2); test: MDCK cell-based plaque reduction assay, influenza A3/Lufang 93-1; settings: Influenza A virus
# [7] = system: MDCK cells, HEK293 cells and HeLa cells; test: MTT cytotoxicity, three cell lines; type: cell-based
# [8] = system: human embryonic kidney cells (HEK293 cells); test: MTT cytotoxicity assay in HEK293 cells; type: cell-based; settings: HEK 293 cells, 24 h, mean ± SD of triplicates
# [9] = system: human epithelial carcinoma cell line (HeLa cells); test: MTT cytotoxicity assay in HeLa cells; type: cell-based; settings: 24 h, mean ± SD of triplicates
# [10] = system: Madin-Darby canine kidney (MDCK) cells; test: MTT cytotoxicity assay in MDCK cells; type: cell-based; settings: 24 h, mean ± SD of triplicates
smiles,measurement,setting,value
"CCOC(=O)N1CCC(Nc2ccnc3ccccc23)CC1 [Compound 6b, Ethyl 4-(quinolin-4-ylamino)piperidine-1-carboxylate]",anti-influenza inhibitory activity (result in words),[1],moderate inhibitory activity
"CCOC(=O)N1CCC(Sc2cccc3ccccc23)CC1 [Compound 1f, Ethyl 4-(naphthalen-1-ylthio)piperidine-1-carboxylate]",anti-influenza inhibitory activity (result in words),[1],moderate inhibitory activities
"CCOC(=O)N1CCC(Oc2ccnc3ccccc23)CC1 [Compound 6a, Ethyl 4-(quinolin-4-yloxy)piperidine-1-carboxylate]",anti-influenza inhibitory activity (result in words),[1],good inhibitory activity
same,fold improvement of inhibitory activity over HTS hit P114F5,[1],6 fold
"CC(C)(C)OC(=O)N[C@@H](Cc1ccccc1)C(=O)N1CCC(Sc2ccnc3ccccc23)CC1 [Compound 12a, (S)-tert-Bbutyl (1-oxo-3-phenyl-1-(4-(quinolin-4-ylthio)piperidin-1-yl)propan-2-yl)carbamate]",EC50,[1],15.5 µM
"CCOC(=O)N1CCC(Sc2ccncc2)CC1 [Compound 1c, Ethyl 4-(pyridin-4-ylthio)piperidine-1-carboxylate]",inhibition to influenza virus at 100 μM,[1],did not show any inhibition
"CCOC(=O)N1CCC(Sc2ccc(C)cc2)CC1 [Compound 1d, Ethyl 4-(p-tolylthio)piperidine-1-carboxylate]",anti-influenza inhibitory activity (result in words),[1],moderate inhibitory activities
"CC(C)(C)OC(=O)N[C@@H](CC(N)=O)C(=O)N1CCC(Sc2ccnc3ccccc23)CC1 [Compound 12b, (S)-tert-Butyl (4-amino-1,4-dioxo-1-(4-(quinolin-4-ylthio)piperi-din-1-yl)butan-2-yl)carbamate]",EC50,[1],> 100 µM
"c1ccc2c(OC3CCNCC3)ccnc2c1 [Compound 11h, 4-(Piperidin-4-yloxy)quinolone]",anti-influenza inhibitory activity (result in words),[1],significantly reduced the activity
same,EC50,[1],> 100 µM
"CCOC(=O)N1CCC(Sc2ccnc3ccccc23)CC1 [Compound P114F5, ethyl 4-(quinolin-4-ylthio)piperidine-1-carboxylate]",EC50,[2],9.05 µM
same,time-of-addition effect,[3],most effective as an inhibitor of influenza virus; also recorded: no significant anti-influenza activities were observed
same,EC50,[4],8.78 µM
same,EC50,[5],10.9 µM
same,EC50,[6],11.7 µM
"CCOC(=O)N1CCC(Sc2ccc(OC)cc2)CC1 [Compound 1e, Ethyl 4-((4-methoxyphenyl)thio)piperidine-1-carboxylate]",anti-influenza inhibitory activity (result in words),[1],moderate inhibitory activities
"CCOC(=O)N1CCC(Sc2cc(-c3ccccc3)nc3ccccc23)CC1 [Compound 1a, Ethyl 4-((2-phenylquinolin-4-yl)thio)piperidine-1-carboxylate]",inhibition to influenza virus at 100 μM,[1],did not show any inhibition
"c1ccc2c(OC3CCOCC3)ccnc2c1 [Compound 11j, 4-((Tetrahydro-2H-pyran-4-yl)oxy)quinolone]",EC50,[1],> 100 µM
"CCOC(=O)N1CCC(Sc2cc(Cl)nc3ccccc23)CC1 [Compound 1b, Ethyl 4-((2-chloroquinolin-4-yl)thio)piperidine-1-carboxylate]",anti-influenza inhibitory activity (result in words),[1],moderate inhibitory activities
"CC(C)(C)OC(=O)N1CCC(Oc2ccnc3ccccc23)CC1 [Compound 11e, tert-Butyl 4-(quinolin-4-yloxy)piperidine-1-carboxylate]",cytotoxicity (result in words),"[7]; any of the cell lines, up to a concentration of millimolar (mM) range, MTT",did not exhibit cytotoxicity; also recorded: did not observe cytotoxicity
same,selectivity index value (SI = MLD50/EC50),[7]; based on cytotoxicity measured by MTT assays of three cell lines,"over 160,000"
same,MDL50 (μM) mean ± SD,[8],8101.97 ± 473.16 µM
same,fold improvement of inhibitory activity over HTS hit P114F5,[1],100 fold
same,EC50,[2],0.1 µM
same,EC50,[4],0.07 µM
same,EC50,[5],0.05 µM
same,MDL50 (μM) mean ± SD,[9],8850.21 ± 406.99 µM
same,MDL50 (μM) mean ± SD,[10],10061.92 ± 235.86 µM
same,EC50,[6],0.06 µM
